Patent US8202902B2, “Bivalent SMAC mimetics and the uses thereof” (The Regents of the University of Michigan, priority 2006, dated 2012)

Tests used:
[1] = system: Sensitive cancer cell lines; assay: Secreted TNFα in cell culture medium (ELISA), sensitive lines; format: cell-based
Description: (§1) To explore whether the resistance of cancer cells to Smac mimetics is due to the lack of secreted TNFα, the levels of secreted TNFα were examined. Secreted TNFα concentrations were determined in 200 μl of cell culture medium using the Quantikine HS Human TNFα ELISA kit (R&D Systems). The assay was performed according to the manufacturer's instructions.

[2] = system: resistant cancer cell lines (MDA-MB-453 breast, DU-145 prostate, MDA-MB-435 melanoma); assay: Secreted TNFα in cell culture medium (ELISA), resistant lines; format: cell-based
Description: as §1

[3] = system: MDA-MB-231 and SK-OV-3 cancer cell lines; assay: Role of caspase-8, -3 and -9 (siRNA, caspase inhibitors) in activity of Smac mimetics; format: cell-based; conditions: siRNA
From the text: To examine the role of caspase-8, -3 and -9 in apoptosis induction by Smac mimetics, siRNA was employed against these caspases in MDA-MB-231 and SK-OV-3 cancer cell lines.

[4] = target: T1, XIAP protein containing both BIR2 and BIR3 domains (Homo sapiens, UniProt P98170); assay: Fluorescence-polarization based binding assay, XIAP BIR2-BIR3
T1 construct: XIAP protein containing both BIR2 and BIR3 domains; made in house
T1 sequence (P98170 120-356 limits assumed): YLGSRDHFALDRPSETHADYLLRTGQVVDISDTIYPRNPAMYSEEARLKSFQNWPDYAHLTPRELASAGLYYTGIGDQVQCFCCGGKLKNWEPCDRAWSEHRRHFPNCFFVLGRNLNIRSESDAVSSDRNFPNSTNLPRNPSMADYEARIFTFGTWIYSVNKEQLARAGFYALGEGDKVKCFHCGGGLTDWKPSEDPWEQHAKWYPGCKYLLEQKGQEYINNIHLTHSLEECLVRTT

MDA-MB-231 cells = assay: Trypan blue cell viability assay, MDA-MB-231; format: cell-based, human; conditions: 100 nM, 2 days
Description: 0.3×10^6 cells were seeded in 6 well plates and incubated at 37° C. in an atmosphere of 95% air and 5% CO2 without or with tested compound for 2 days. A 1:1 dilution of 0.4% Trypan blue (Invitrogen Corporation) was used to determine cell viability.

[5] = system: HCT116 and MDA-MB-453 cell lines; assay: Activity with exogenous TNFα in resistant cancer cell lines; format: cell-based
[6] = system: cIAP-1 in cancer cell lines; assay: Induction of cIAP-1 degradation in cancer cells; format: cell-based

## CN[C@@H](C)C(=O)N[C@H]1CCCC[C@H]2CC[C@@H](C(=O)N[C@@H](c3ccccc3)c3cn(CCCCc4ccc(CCCCn5cc([C@@H](NC(=O)[C@@H]6CC[C@@H]7CCCC[C@H](NC(=O)[C@H](C)NC)C(=O)N76)c6ccccc6)nn5)cc4)nn3)N2C1=O [SH-164]
[1]
  secretion of TNFα: further enhanced
[2]
  induction of TNFα: failed to induce detectable levels of TNFα
[3]
  effect of knockdown of caspase-3 and -8 on activity: markedly attenuated
  effect of knockdown of caspase-9 on activity: minimal effect
[4]
  more potent than monovalent SM-122 for binding to XIAP: 300 times
MDA-MB-231 cells
  cell death: at least 70%
[5]
  effect of exogenous TNFα on activity: significantly enhanced
[6]; 1 nM for 60 min, sensitive cancer cell lines
  cIAP-1 level: reduced cIAP-1 markedly
[6]; 100 nM, SK-OV-3 cell line (FIG. 28)
  cIAP-1 degradation: rapid cIAP-1 degradation
[6]; 10-100 nM, sensitive cancer cell lines
  cIAP-1 level / degradation: undetectable levels
[6]; MDA-MB-231 and SK-OV-3, 12-24 h time points
  levels of XIAP protein: reduced
[6]; resistant cancer cell lines
  cIAP-1 degradation: rapid cIAP-1 degradation
